Experimental data taken from patent US8399681B2, “Substituted aminothiazolone indazoles as estrogen related receptor-alpha modulators” (Janssen Pharmaceutica NV, priority 2009, dated 2013).

Legend:
[1] = biological target: T1, ERR1 (also known as ERR-α or ERR-1) (Homo sapiens, UniProt P11474); assay: TR-FRET assay (disruption of co-activator peptide binding); assay type: biochemical; details: 6His-tagged ERR1 LBD, GST-hSRC2 co-activator polypeptide; average of 3 independent experiments
T1 sequence (P11474 193-421 limits assumed): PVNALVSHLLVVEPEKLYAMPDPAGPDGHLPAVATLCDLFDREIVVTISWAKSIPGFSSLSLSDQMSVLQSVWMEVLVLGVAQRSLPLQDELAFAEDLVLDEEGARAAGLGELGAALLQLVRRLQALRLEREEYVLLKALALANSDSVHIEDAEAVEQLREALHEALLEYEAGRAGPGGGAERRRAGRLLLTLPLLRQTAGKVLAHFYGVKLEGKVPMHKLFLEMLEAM
Procedure, shortened: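 Compound-induced loss of co-activator recruitment, read by time-resolved FRET (excitation 340 nm; 615 and 665 nm emission) after 4-18 h at 25 °C. Reagents: 6 nM ERR1LBD, 6 nM GST-SRC-2, 30 nM Eu cryptate, 7.5 nM XL665, pH 8 Tris buffer. Values: hyperbolic fits averaged over 3 independent runs.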

[2] = test system: Zucker fa/fa male rats; assay: Zucker fa/fa Rat Model Assay; assay type: in vivo; details: dosed orally once a day for 4 days, blood collected at day 5
Description: Zucker fa/fa is a monogenic model of frank diabetes due to a mutation on the fa gene truncating the leptin receptor and preventing its interaction with its peptide hormone. This mutation results in a hyperphagic phenotype and the rodent develops obesity, hyperlipidemia, fasting hyperglycemia and insulin resistance. Zucker fa/fa male rats were received at four weeks of age and allowed to acclimate for one week. At five weeks of age the animals were single housed in cages in a temperature-controlled room with 12-hour light/dark cycle. The rats were allowed ad libitum access to water and food and throughout the study were maintained on a Purina 5008 diet. Animals were sorted based primarily on fed insulin levels and circulating triglycerides. Animals were dosed orally once a day in the morning for 4 days. The vehicle used was either 20% HPβCD (Hydroxypropyl Beta Cyclodextrin) or 15% Vitamin E/30% PEG-400 (Polyethylene Glycol 400). Fed insulin and triglycerides were measured using blood collected from the tail vein at day 5. Serum plasma samples were prepared by centrifugation in EDTA (Ethylenediaminetetraacetic acid) containing tubes, transferred into 96 well plates and stored at −80° C.

| EC50 [1] [nM] | Structure (SMILES) | % Lowering Fed Insulin Levels [2] [%] | % Lowering Fed Triglyceride Levels [2] [%] |
| --- | --- | --- | --- |
| 21 | COC(=O)N[C@@H]1C[C@H](CO)N(C2=NC(=O)/C(=C/c3ccc4c(cnn4Cc4ccc(C(F)(F)F)cc4C(F)(F)F)c3)S2)C1 [Example 213, Methyl {1-[5-({1-[2,4-bis(trifluoromethyl)benzyl]-1H-indazol-5-yl}methylidene)-4-oxo-4,5-dihydro-1,3-thiazol-2-yl]-5-(R)-(hydroxymethyl)pyrrolidin-3-(R)-yl}carbamate] | 42 | 30 |
| 13.1 | O=C1N=C(N2CCCNCC2)S/C1=C\c1ccc2c(cnn2Cc2ccc(Cl)cc2C(F)(F)F)c1 [Example 54, 5-[1-(4-Chloro-2-trifluoromethyl-benzyl)-1H-indazol-5-ylmethylene]-2-[1,4]diazepan-1-yl-thiazol-4-one] | 60 | 27 |
| 19 | O=C1N=C(N2CCO[C@H](CO)C2)S/C1=C\c1ccc2c(cnn2Cc2ccc(C(F)(F)F)cc2C(F)(F)F)c1 [Example 140, 5-[1-(2,4-Bis-trifluoromethyl-benzyl)-1H-indazol-5-ylmethylene]-2-((2S)-hydroxymethyl-morpholin-4-yl)-thiazol-4-one] | 59 | 67 |
| 5 | O=C1N=C(N2CCN[C@@H](CO)C2)S/C1=C\c1ccc2c(c1)c(Cl)nn2Cc1ccc(C(F)(F)F)cc1C(F)(F)F [Example 186, 5-[1-(2,4-Bis-trifluoromethyl-benzyl)-3-chloro-1H-indazol-5-ylmethylene]-2-(3-(R)-hydroxymethyl-piperazin-1-yl)-thiazol-4-one] | 75 | 56 |
| 16.4 | O=C1N=C(N2C[C@@H]3C[C@H]2CN3CCO)S/C1=C\c1ccc2c(cnn2Cc2ccc(C(F)(F)F)cc2C(F)(F)F)c1 [Example 71, 5-[1-(2,4-Bis-trifluoromethyl-benzyl)-1H-indazol-5-ylmethylene]-2-[5-(2-hydroxy-ethyl)-2S,5S-diaza-bicyclo[2.2.1]hept-2-yl]-thiazol-4-one] | 37 | 25 |
| 4.5 | N[C@H]1CCCN(C2=NC(=O)/C(=C/c3ccc4c(cnn4Cc4ccc(C(F)(F)F)cc4C(F)(F)F)c3)S2)C1 [Example 52, 2-(3-(S)-Amino-piperidin-1-yl)-5-[1-(2,4-bis-trifluoromethyl-benzyl)-1H-indazol-5-ylmethylene]-thiazol-4-one] | 86 | 55 |
| 14.3 | O=C1N=C(N2CC(C(=O)O)C2)S/C1=C\c1ccc2c(cnn2Cc2ccc(C(F)(F)F)cc2C(F)(F)F)c1 [Example 35, 1-{5-[1-(2,4-Bis-trifluoromethyl-benzyl)-1H-indazol-5-ylmethylene]-4-oxo-4,5-dihydro-thiazol-2-yl}-azetidine-3-carboxylic acid] | 45 | 20 |
| 19.7 | O=C1N=C(N2CCOC(C(=O)O)C2)S/C1=C\c1ccc2c(cnn2Cc2ccc(C(F)(F)F)cc2C(F)(F)F)c1 (stereo not shown) [Example 188, 4-[5-({1-[2,4-Bis(trifluoromethyl)benzyl]-1H-indazol-5-yl}methylidene)-4-oxo-4,5-dihydro-1,3-thiazol-2-yl]morpholine-2-carboxylic acid] | 81 | 59 |
| 20 | O=C1N=C(N2CCOC[C@H]2CO)S/C1=C\c1ccc2c(cnn2Cc2ccc(Cl)cc2C(F)(F)F)c1 [Example 142, 5-[1-(4-Chloro-2-trifluoromethyl-benzyl)-1H-indazol-5-ylmethylene]-2-(3(R)-hydroxymethyl-morpholin-4-yl)-thiazol-4-one] | 63 | 55 |
| 10.1 | O=C1N=C(N2CCC(C(=O)O)CC2)S/C1=C\c1ccc2c(cnn2Cc2ccc(C(F)(F)F)cc2C(F)(F)F)c1 [Compound 1, 1-{5-[1-(2,4-Bis-trifluoromethyl-benzyl)-1H-indazol-5-ylmethylene]-4-oxo-4,5-dihydro-thiazol-2-yl}-piperidine-4-carboxylic acid] | 58 | 37 |
| 15 | O=C(O)C1=CCN(C2=NC(=O)/C(=C/c3ccc4c(cnn4Cc4ccc(Cl)cc4C(F)(F)F)c3)S2)CC1 [Example 198, 1-[5-({1-[4-Chloro-2-(trifluoromethyl)benzyl]-1H-indazol-5-yl}methylidene)-4-oxo-4,5-dihydro-1,3-thiazol-2-yl]-1,2,3,6-tetrahydropyridine-4-carboxylic acid] | 35 | 21 |
| 16 | O=C1N=C(N2CCN[C@@H](CO)C2)S/C1=C\c1ccc2c(cnn2Cc2ccc(C(F)(F)F)cc2C(F)(F)F)c1 [Example 139, 5-[1-(2,4-Bis-trifluoromethyl-benzyl)-1H-indazol-5-ylmethylene]-2-(3-(R)-hydroxymethyl-piperazin-1-yl)-thiazol-4-one] | 82 | 58 |
| 15 | NC1CN(C2=NC(=O)/C(=C/c3ccc4c(cnn4Cc4ccc(Cl)cc4C(F)(F)F)c3)S2)C1 [Example 98, 2-(3-Amino-azetidin-1-yl)-5-[1-(4-chloro-2-trifluoromethyl-benzyl)-1H-indazol-5-ylmethylene]-thiazol-4-one] | 51 | 22 |
| 23.5 | O=C1N=C(N2CCOC[C@@H]2C(=O)O)S/C1=C\c1ccc2c(cnn2Cc2ccc(Cl)cc2C(F)(F)F)c1 [Example 194, 4-[5-({1-[4-Chloro-2-(trifluoromethyl)benzyl]-1H-indazol-5-yl}methylidene)-4-oxo-4,5-dihydro-1,3-thiazol-2-yl]morpholine-3-(R)-carboxylic acid] | – | – |
| 9 | C[C@@H]1CN(C2=NC(=O)/C(=C/c3ccc4c(cnn4Cc4ccc(C(F)(F)F)cc4C(F)(F)F)c3)S2)C[C@H](C)[N+]1(C)C [Example 240, (2R,6S)-4-[5-({1-[2,4-Bis(trifluoromethyl)benzyl]-1H-indazol-5-yl}methylidene)-4-oxo-4,5-dihydro-1,3-thiazol-2-yl]-1,1,2,6-tetramethylpiperazin-1-ium chloride] | – | – |
| 7.8 | COc1ccc(Cn2ncc3cc(/C=C4\SC(N5CC[C@H]5C(=O)O)=NC4=O)ccc32)c(C(F)(F)F)c1 [Example 50, 1-{5-[1-(4-Methoxy-2-trifluoromethyl-benzyl)-1H-indazol-5-ylmethylene]-4-oxo-4,5-dihydro-thiazol-2-yl}-azetidine-2-(S)-carboxylic acid] | – | – |
| 52 | O=C1N=C(N2CCN[C@@H](CO)C2)S/C1=C\c1ccc2c(cnn2Cc2ccc(F)cc2C(F)(F)F)c1 [Example 178, 5-[1-(4-Fluoro-2-trifluoromethyl-benzyl)-1H-indazol-5-ylmethylene]-2-((3R)-3-hydroxymethyl-piperazin-1-yl)-thiazol-4-one] | – | – |
| 8 | O=C1N[C@@H]2C[C@H](CO1)N(C1=NC(=O)/C(=C/c3ccc4c(cnn4Cc4ccc(C(F)(F)F)cc4C(F)(F)F)c3)S1)C2 [Example 214, (1R,6R)-7-[5-({1-[2,4-Bis(trifluoromethyl)benzyl]-1H-indazol-5-yl}methylidene)-4-oxo-4,5-dihydro-1,3-thiazol-2-yl]-4-oxa-2,7-diazabicyclo[4.2.1]nonan-3-one] | – | – |
| 8 | NC(=O)C1CN(C2=NC(=O)/C(=C/c3ccc4c(cnn4Cc4ccc(C(F)(F)F)cc4C(F)(F)F)c3)S2)CCN1 (stereo not shown) [Example 274, 4-[5-({1-[2,4-Bis(trifluoromethyl)benzyl]-1H-indazol-5-yl}methylidene)-4-oxo-4,5-dihydro-1,3-thiazol-2-yl]piperazine-2-carboxamide] | – | – |
| 19 | NCC(=O)N1CCCN(C2=NC(=O)/C(=C/c3ccc4c(cnn4Cc4ccc(Cl)cc4C(F)(F)F)c3)S2)CC1 [Example 138, 2-[4-(2-Amino-acetyl)-[1,4]diazepan-1-yl]-5-[1-(4-chloro-2-trifluoromethyl-benzyl)-1H-indazol-5-ylmethylene]-thiazol-4-one] | – | – |

| Structure (SMILES) | EC50 [1] [nM] | % Lowering Fed Insulin Levels [2] [%] | % Lowering Fed Triglyceride Levels [2] [%] |
| --- | --- | --- | --- |
| O=C1N=C(N2CCc3c(O)noc3C2)S/C1=C\c1ccc2c(cnn2Cc2ccc(Cl)cc2C(F)(F)F)c1 [Example 197, 5-({1-[4-Chloro-2-(trifluoromethyl)benzyl]-1H-indazol-5-yl}methylidene)-2-(3-hydroxy-4,7-dihydroisoxazolo[5,4-c]pyridin-6(5H)-yl)-1,3-thiazol-4(5H)-one] | 29 | 27 | 2 |
